# In US20260108483A1, “METHODS AND COMPOSITIONS FOR PREVENTING THE PROGRESSION OF DIABETIC RETINOPATHY AND RELATED CONDITIONS” (Opus Genetics, Inc., priority 2023, published 2026):
# Tested on: diabetic retinopathy (moderately severe to severe NPDR or mild PDR)
# Test: Phase 2 placebo-controlled clinical study: three or more step worsening in binocular Diabetic Retinopathy Severity Scale Score
# Type: in vivo, human
# Conditions: weeks 12 and 24; 600 mg/day oral (3+2 tablets of 120 mg) vs placebo
# Text: Ability of Compound 1 to prevent the progression of non-proliferative diabetic retinopathy (NPDR) and mild proliferative diabetic retinopathy (PDR) may be evaluated according to a clinical study in which Compound 1 was orally administered to patients suffering from non-proliferative diabetic retinopathy or mild proliferative diabetic retinopathy. Compound 1 has the chemical name (E)-2-((4,5-dimethoxy-2-methyl-3,6-dioxocyclohexa-1,4-dien-1-yl)methylene)undecanoic acid, and is depicted by the following chemical formula: The study was configured as a placebo-controlled, double-masked, randomized, Phase 2 study in approximately 100 subjects with moderately severe to severe NPDR (diabetic retinopathy severity score [DRSS] Level 47 or 53, see FIG. 1) or mild PDR (DRSS Level 61), evaluating safety and efficacy following administration of Compound 1 twice daily for 24 weeks. The study was configured for a 1:1 randomization (placebo: Compound 1). Randomization was stratified by level of disease severity (NPDR or PDR). Subjects with mild PDR were capped at 20% for each arm. Efficacy evaluations at 12 and/or 24 weeks included DRSS, center-involved diabetic macular edema (DME), moderate PDR or PDR-related adverse events (AEs), best-corrected visual acuity (BCVA), and central subfield thickness (CST). Further experimental procedures and results are described below. […]
structure (smiles),measurement,value
"CCCCCCCCC/C(=C\C1=C(C)C(=O)C(OC)=C(OC)C1=O)C(=O)O [Compound 1, (E)-2-((4,5-dimethoxy-2-methyl-3,6-dioxocyclohexa-1,4-dien-1-yl)methylene)undecanoic acid]","preventing the progression of diabetic retinopathy (patients with three or more step worsening in binocular DRSS, FIG. 3)",effective in preventing the progression of diabetic retinopathy
